Patent US4175130A, “Oxazole- and thiazole-alkanoic acid compounds” (Yoshitomi Pharmaceutical Industries, Ltd., priority 1977, dated 1979)

Key:
[1] = tested on: Cholesterol and triglyceride in the serum; experiment: Hypolipidemic action: male rats with normolipidemia (serum cholesterol and triglyceride, oral, 5 days); type: in vivo; settings: Wistar rats, 100 mg/kg/day oral, control = 100%, * p<0.05 (all values starred)
Protocol: (1) Male rats with normolipidemia:
Male Wistar rats (170-250 g) were used. Each group was composed of 6 animals. The test compound was orally given by a gastric tube for 5 days. Cholesterol and triglyceride in the serum were determined by the standard methods using antoanalyzer (Technicon Inc.). The levels in the control group were considered as 100% and the reduction rate (%) in the test group was calculated.

[2] = Liver weight / hepatomegaly; type: in vivo, male Wistar rats; settings: for Increase (%) Liver Weight: Wistar rats, 100 mg/kg/day oral, 5 days, * p<0.05 (only clofibrate starred)
[3] = tested on: serum cholesterol; experiment: Hypolipidemic action: male mice with hyperlipidemia (high cholesterol diet); type: in vivo, male dd-strain mice; settings: dd mice, 100 mg/kg/day oral, 5 days, * p<0.05 (A, B, C, D starred; clofibrate not)
Protocol: (2) Male mice with hyperlipidemia:
Male dd-strain mice (20-25 g) were used. Each group was composed of 10 animals. Mice were fed a high cholesterol diet (1% cholesterol, 0.2% sodium cholate, 5% olive oil and 93.8% commercial diet) for 5 days. The test compound was orally administered to the animals once a day throughout the experimental period. The serum cholesterol was determined by the procedure described in Experiment (1).

[4] = Acute Toxicity (oral); settings: mouse, in vivo, mice, p.o., mortality within 7 days
Protocol: Male dd-strain mice (20-25 g) were used. Each group was composed of 10 animals. The test compound was orally administered to the animals. The LD50 (mg/kg) was calculated from the mortality within 7 days after administration of the test compound.

[5] = Serum Levels in Rhesus Monkey; type: in vivo, rhesus monkeys; settings: 10 mg/kg oral; for Cmax: read-out: Peak level (serum)
Protocol: Serum Levels in Rhesus Monkey
The test compound was orally administered to rhesus monkeys at the dose of 10 mg/kg. Blood was collected at 0, 2, 4, 6, 8, 24, 30 and 48 hours after the administration of the test compound. After centrifugation, serum was stored at -20° C. until taken for analysis. Serum drug was extracted with ethyl acetate and fluorometrically determined.
(Wavelengths for fluorometric determination:
excitation: 294 nm, emission: 365 nm with compound A;
excitation: 305 nm, emission: 370 nm with compound D)

SMILES	Decrease (%) Cholesterol [1]	Decrease (%) Triglyceride [1]	Increase (%) Liver Weight [2]	Decrease (%) of Serum Cholesterol [3]	liver enlargement ([2]; 100 mg/kg)	LD50 at 168 h [4]	hepatomegaly ([2]; 500 mg/kg)	half-life [5]	Cmax [5]
O.O=C(O)Cc1nc(-c2ccc(Cl)cc2)oc1Oc1ccccc1 [B, 2-p-Chlorophenyl-5-phenoxy-4-oxazoleacetic acid monohydrate]	37%	33%	-6%	38%	–	–	–	–	–
CCOC(=O)Cc1nc(-c2ccc(Cl)cc2)sc1Sc1ccccc1 [C, Ethyl 2-p-chlorophenyl-5-phenylthio-4-thiazoleacetate]	40%	29%	15%	34%	–	–	–	–	–
CCOC(=O)C(C)(C)Oc1ccc(Cl)cc1 [Clofibrate, reference compound]	32%	34%	17%	16%	significant liver enlargement	1500 mg/kg	–	–	–
CCOC(=O)Cc1nc(-c2ccc(Cl)cc2)oc1Oc1ccc(Cl)cc1 [Compound A, Ethyl 2-p-chlorophenyl-5-p-chlorophenoxy-4-oxazoleacetate]	40%	33%	5%	37%	–	> 6000 mg/kg	no hepatomegaly	30 h	30000 ng/mL
CCOC(=O)Cc1nc(-c2ccc(Cl)cc2)oc1OCC [D, Ethyl 2-p-chlorophenyl-5-ethoxy-4-oxazoleacetate, reference compound]	32%	33%	5%	37%	–	3700 mg/kg	–	3 h	15000 ng/mL
